Source: the supplement of paper PMC2824726
Where “and” joins values, the source holds several entries; their conditions need not be identical. Identical values can stand only once.

Tested on: MDA-MB-231
Experiment: shRNA barcode abundance ratio t_end/t_zero (depletion over 4 weeks of proliferation) (log2 ratio); higher = less depletion (weaker anti-proliferative effect of the shRNA)
Details: time after t zero 28 days
Method: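 Pooled lentiviral negative-selection screen of 305 pGIPZ shRNAs (Open Biosystems V2LHS clones; the 21-nt half-hairpin sense stem is embedded in a mir-30 scaffold) in MDA-MB-231 breast carcinoma cells, infected at MOI 0.3 with 0.5 ug/ml puromycin selection. Barcode abundance was read on barcode tiling microarrays (six 25-nt probes per 60-nt barcode) at t_zero (5 days post-infection) and t_end (33 days; 28 days of culture after t_zero). Values are median-normalised t_end/t_zero signal ratios, averaged over the tiling probes that passed a 10-fold background filter, from three biological replicates.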

Compared with “GCAAATGGAATCTTTATGAAA (targeted gene: MALT1)”, “GCAAATTTCATGACCAGTAAA (targeted gene: TDGF1)” is lower in “shRNA barcode abundance ratio t end/t zero (log2)” value: 0.375 for the first, -0.234 for the second.

Going from “GCAATTGAGAGCATTCTTAAA (targeted gene: IL3)” to “GCACAACCAGTTCTGCAATAT (targeted gene: TAX1BP1)”, the “shRNA barcode abundance ratio t end/t zero (log2)” value rises from -0.0688 to 0.565.

“GCACAAGCAGCTGATCCGATT (targeted gene: IL4)” and “GCACAGCATCAAACCAAGTTA (targeted gene: MLH1)” are within 0.2 log units of each other in “shRNA barcode abundance ratio t end/t zero (log2)” value: -0.0177 for the first, 0.165 for the second.

“GCACAGGCTTTATCGAGAATA (targeted gene: IGFBP3)” and “GCACATCCTTGCTAATTTCAA (targeted gene: TPT1)” are within 0.2 log units of each other in “shRNA barcode abundance ratio t end/t zero (log2)” value: 0.0415 for the first, 0.0219 for the second.

Going from “GCACCTAGTGTCCAGATTCAT (targeted gene: HDAC3)” to “GCACTTGCCTTTAAACTATGT (targeted gene: NFIA)”, the “shRNA barcode abundance ratio t end/t zero (log2)” value rises from 0.129 to 0.384.

Going from “GCAGAAGCTCTCCAAATTGAA (targeted gene: APAF1)” to “GCAGATGAAGATCATCGAAAT (targeted gene: BRAF)”, the “shRNA barcode abundance ratio t end/t zero (log2)” value falls from 0.521 to 0.116.

Going from “GCAGATTCAAGTCAATCTGAA (targeted gene: NFIA)” to “GCAGATTCGTTCAGAGTCTAA (targeted gene: BIRC3)”, the “shRNA barcode abundance ratio t end/t zero (log2)” value falls from 0.355 to 0.154.

Compared with “GCAGCTTCAGGTTTACTCAAA (targeted gene: CD28)”, “GCAGCTTCCTTGAACCATTAT (targeted gene: SPHK1)” is lower in “shRNA barcode abundance ratio t end/t zero (log2)” value: 0.127 for the first, -0.397 for the second.

First: GCAGGTATTTGACATATTAAA (targeted gene: NFKB1)
Second: GCAGTAGCCTTGATAGATTAT (targeted gene: BIRC6)
The “shRNA barcode abundance ratio t end/t zero (log2)” value of the first is higher: 0.38 for the first, -0.00928 for the second.

Compared with “GCAGTATAGAGCGTGCAGATA (targeted gene: PTEN)”, “GCATCATGCCTTCTGAATAAA (targeted gene: CLN3)” is higher in “shRNA barcode abundance ratio t end/t zero (log2)” value: -0.0774 for the first, 0.486 for the second.

First: GCATCTTCTTCGGTGAAATAT (targeted gene: BNIP2)
Second: GCATGTAATAGAGTGTGCTAA (targeted gene: MSH2)
The “shRNA barcode abundance ratio t end/t zero (log2)” value of the first is lower: -0.0165 for the first, 1.01 for the second.

First: GCATGTTATGTTGTTCTTATT (targeted gene: XIAP)
Second: GCCAAGTTCTTAGTTGCTGTA (targeted gene: CXCR4)
The “shRNA barcode abundance ratio t end/t zero (log2)” value of the first is higher: 0.25 for the first, -1.59 for the second.

“GCCAATATTGTGTTTGGATAT (targeted gene: MALT1)” and “GCCACATGTCTTTGCTTGATA (targeted gene: NAIP)” are within 0.2 log units of each other in “shRNA barcode abundance ratio t end/t zero (log2)” value: 0.354 for the first, 0.453 for the second.

“GCCCTGATTGTGTATATTCAT (targeted gene: BCL2)” and “GCCCTGTACTTTAACCCAATT (targeted gene: BFAR)” are within 0.2 log units of each other in “shRNA barcode abundance ratio t end/t zero (log2)” value: 0.006 for the first, 0.0378 for the second.

Compared with “GCCGAAGATTTCACAGTCAAA (targeted gene: IGF1R)”, “GCCGTTAACTAGGTTAATAAA (targeted gene: FANCF)” is lower in “shRNA barcode abundance ratio t end/t zero (log2)” value: 0.225 for the first, -0.0468 for the second.

First: GCCTACAGCTGCCTCCTAGAA (targeted gene: ANXA4)
Second: GCCTACTTTCACACTAAGAAA (targeted gene: CASP8)
The “shRNA barcode abundance ratio t end/t zero (log2)” value of the first is higher: 0.417 for the first, -0.242 for the second.

Going from “GCCTATATCAGCAATTGTCAT (targeted gene: ATM)” to “GCCTATGACTTTATCATGAAA (targeted gene: ABCB1)”, the “shRNA barcode abundance ratio t end/t zero (log2)” value rises from -0.178 to 0.0933.

First: GCCTCACCAGTCCATTATTAT (targeted gene: BIRC6)
Second: GCCTGCTGAATTTATGTTGTA (targeted gene: RAB6C)
The “shRNA barcode abundance ratio t end/t zero (log2)” value of the first is higher: 0.259 for the first, -1.3 for the second.

First: GCCTGTCCATTGGTGATGTTG (targeted gene: HMGB1)
Second: GCCTTGAAACATTGATGGAAT (targeted gene: BCL2)
The “shRNA barcode abundance ratio t end/t zero (log2)” value of the first is lower: -0.18 for the first, 0.25 for the second.

First: GCCTTGGAACTGATGAAGATA (targeted gene: ANXA1)
Second: GCGAAGAACCTTGTGTGACAA (targeted gene: BCL2)
The “shRNA barcode abundance ratio t end/t zero (log2)” value of the first is higher: 0.483 for the first, -0.0784 for the second.

Going from “GCGCAAGAAATCCCGGTATAA (targeted gene: VEGFA)” to “GCGCACAGGCTTTATCGAGAA (targeted gene: IGFBP3)”, the “shRNA barcode abundance ratio t end/t zero (log2)” value falls from 0.382 to -0.0187.

First: GCGCCGAAATTGCAGGTTTAT (targeted gene: BIRC8)
Second: GCGCGAGTTCGCTTCTAATAT (targeted gene: GSX1)
The “shRNA barcode abundance ratio t end/t zero (log2)” value of the first is lower: -0.37 for the first, 0.174 for the second.

Compared with “GCGGTTCTTAGAAGAGTACTT (targeted gene: DAD1)”, “GCGTCGTTAATTTATTTCTTA (targeted gene: IER3)” is higher in “shRNA barcode abundance ratio t end/t zero (log2)” value: -0.432 for the first, 0.159 for the second.

Going from “GCGTCTGGCCTCCTTCTATGA (targeted gene: BIRC7)” to “GCGTGCCATGACAAAGGATAA (targeted gene: HSPA8)”, the “shRNA barcode abundance ratio t end/t zero (log2)” value falls from 0.556 to -0.885.

“GCGTTTAAGGTGAGCATAAAT (targeted gene: CYP1B1)” and “GCTAACTGTGTGTACATATAT (targeted gene: PEA15)” are within 0.2 log units of each other in “shRNA barcode abundance ratio t end/t zero (log2)” value: -0.142 for the first, -0.216 for the second.

“GCTAAGAGATTCGCCTTAAAT (targeted gene: SOCS3)” and “GCTATACGAATGGGATTTGAT (targeted gene: BIRC8)” are within 0.2 log units of each other in “shRNA barcode abundance ratio t end/t zero (log2)” value: 0.308 for the first, 0.211 for the second.

Compared with “GCTATCTCTCCTGAAGCAATA (targeted gene: BCL2A1)”, “GCTCAACAGATCCAATTTCAT (targeted gene: RBKS)” is lower in “shRNA barcode abundance ratio t end/t zero (log2)” value: 0.264 for the first, -0.0517 for the second.

Going from “GCTCACTACCAAATGTTAATA (targeted gene: BAD)” to “GCTCACTCTTCAGTCGGAAAT (targeted gene: BCL2L1)”, the “shRNA barcode abundance ratio t end/t zero (log2)” value falls from 0.223 to -0.368.

Compared with “GCTCAGTGAGCCCATGGAATT (targeted gene: RELA)”, “GCTCTGTACTTCAACCCAATT (targeted gene: BFAR)” is lower in “shRNA barcode abundance ratio t end/t zero (log2)” value: 0.332 for the first, 0.0174 for the second.

“GCTCTTCATCAGGAGAAATAA (targeted gene: OPA1)” and “GCTCTTCCACTCAGGTGAGAA (targeted gene: LOC284939)” are within 0.2 log units of each other in “shRNA barcode abundance ratio t end/t zero (log2)” value: 0.0963 for the first, -0.0337 for the second.

First: GCTGAAGTACAGGACAATTAT (targeted gene: TAX1BP1)
Second: GCTGAGACAACGTACGACAAA (targeted gene: GDNF)
The “shRNA barcode abundance ratio t end/t zero (log2)” value of the first is higher: 0.181 for the first, -0.263 for the second.

“GCTGAGGAGGCTCAAGTTAAA (targeted gene: TGFB1)” and “GCTGCCAAACTTCAGATAATA (targeted gene: NT5C3)” are within 0.2 log units of each other in “shRNA barcode abundance ratio t end/t zero (log2)” value: 0.277 for the first, 0.163 for the second.

First: GCTGCTTCTGTCTGGTTTATT (targeted gene: THY1)
Second: GCTGGACAACTTGTTGTTAAA (targeted gene: IL10)
The “shRNA barcode abundance ratio t end/t zero (log2)” value of the first is lower: -0.0341 for the first, 0.168 for the second.

“GCTGGCAATTACCAGAACAAT (targeted gene: WRN)” and “GCTGTAACTACTTTATAACTA (targeted gene: RHOA)” are within 0.2 log units of each other in “shRNA barcode abundance ratio t end/t zero (log2)” value: 0.0875 for the first, -0.0204 for the second.

“GCTGTGAGTTCTGATAGGAAT (targeted gene: XIAP)” and “GCTGTGGTTAATTACACATTA (targeted gene: ACVR1)” are within 0.2 log units of each other in “shRNA barcode abundance ratio t end/t zero (log2)” value: -0.186 for the first, -0.208 for the second.

First: GCTTAGAACTTTAAGCAACAA (targeted gene: TNF)
Second: GCTTCCTACAGCACAACAAAT (targeted gene: VEGFA)
The “shRNA barcode abundance ratio t end/t zero (log2)” value of the first is lower: -1.56 for the first, 0.437 for the second.

“GCTTGTTGTTTGAGAAGTTTA (targeted gene: BAG3)” and “GGAAATTCTTTCACTTCATTA (targeted gene: MCL1)” are within 0.2 log units of each other in “shRNA barcode abundance ratio t end/t zero (log2)” value: 0.38 for the first, 0.208 for the second.

Compared with “GGAACTTTAGTTGAAGCGTAA (targeted gene: APAF1)”, “GGAAGTGATCCAAATGTTAAA (targeted gene: BARD1)” is lower in “shRNA barcode abundance ratio t end/t zero (log2)” value: 0.303 for the first, -2.23 for the second.

Compared with “GGACAAAGTTTACCAAATGAA (targeted gene: CASP8)”, “GGACAGTGCTTGATACAGGAA (targeted gene: PIM1)” is lower in “shRNA barcode abundance ratio t end/t zero (log2)” value: 0.402 for the first, 0.128 for the second.

“GGACATCTAGTCACTTGTAAA (targeted gene: XIAP)” and “GGACATGACAACTCATCTCAT (targeted gene: IL6)” are within 0.2 log units of each other in “shRNA barcode abundance ratio t end/t zero (log2)” value: 0.00436 for the first, 0.175 for the second.

Compared with “GGACTCTAGAATGTCCATATT (targeted gene: NUAK2)”, “GGACTCTCTTCTAGAGCCATA (targeted gene: BCL2L2)” is higher in “shRNA barcode abundance ratio t end/t zero (log2)” value: 0.326 for the first, 0.635 for the second.

“GGACTTCAGCAGAAATCTTTA (targeted gene: CASP8)” was tested, and the “shRNA barcode abundance ratio t end/t zero (log2)” value was 0.126.

With “GCAAGCAGTCTTGTGAGTTAA (targeted gene: RASA1)” the “shRNA barcode abundance ratio t end/t zero (log2)” value was -0.169 and -0.167.
In the case of “GCACCTTGTTGTCATGAACTT (targeted gene: DAD1)”, the “shRNA barcode abundance ratio t end/t zero (log2)” value is reported as 0.0822 and 0.0853.
For “GCATCAGATGATTTGTCATTA (targeted gene: BIRC2)”, the “shRNA barcode abundance ratio t end/t zero (log2)” value was 0.0467 and 0.133.
